Here are results for two compounds from PMC12035931, “Biologically active withanolides from Physalis peruviana” (Pharmaceutical Biology, 2025).

The test system of data set [1] is RAW 264.7 cells. As to the kind of experiment: SRB cytotoxicity / survival of RAW 264.7 cells in the nitrite assay. Format: cell-based, mouse. To be noted: % survival at a concentration of 50 μM, RAW 264.7. As for the experimental part: (§1) Test compounds were dissolved in phenol red-free DMEM (Cat. No. 12-917 F, Lonza, Massachusetts, USA) and added to the cells as a pretreatment for 30 min. The cells were then exposed to LPS (1 µg/mL, Cat. No. L-2762, Sigma-Aldrich, Saint Louis, MO, USA) for 20 h. Nitric oxide levels were quantified using the Griess reagent, which consists of a 1:1 (v/v) mixture of 1% sulfanilamide (Cat.No. A13001, Alfa Aesar, Massachusetts, USA) in H3PO4 and N-(1-naphthyl)ethylenediamine dihydrochloride (Cat. No. 102397, MP Biomedicals, USA). A standard curve was generated using sodium nitrite (Cat. No. 44227, Alfa Aesar, Massachusetts, USA), and IC50 values were calculated using Table Curve 2D software (Version 4.07, AISN Software Inc., Richmond, VA, USA). Also, a sulforhodamine B (SRB, Cat. No. S9012, Sigma-Aldrich, Saint Louis, MO, USA) assay was performed to assess the cytotoxic effects of the test compounds on RAW 264.7 cells.

Assay in data set [2]: as above
Particulars: mouse; cytotoxicity in RAW 264.7 cells, NO assay; read-out: cytotoxic IC50. Format: cell-based, mouse. On the procedure: as §1

In data set [3] the test system is NO-production in LPS-stimulated RAW 264.7 cells. The arrangement: method as in Choudhari et al. [2013]; Park et al. [2019]. To be noted: ref Choudhari et al. [2013], Park et al. [2019], read-out: NO-production IC50 (literature); cited from earlier work.
Data set [4] has as its system NO production in LPS-activated murine macrophage RAW 264.7 cells. Description: cells. Format: cell-based, mouse. Particulars: for inhibition at 50 µM / IC50: Mus musculus; for inhibition at 50 µM: RAW264.7, 20 h, read-out: Nitrite assay % inhib.; for IC50: RAW264.7, read-out: Nitrite assay IC50. As for the experimental part:
The inhibition of nitric oxide (NO) production in lipopolysaccharide (LPS)-stimulated murine macrophage RAW 264.7 cells was evaluated following previously described methods (Min et al. [2009]). RAW 264.7 cell line was purchased from ATCC (Cat. No. TIB-71, Manassas, VA, USA) and cultured in Dulbecco’s modified Eagle’s medium (DMEM, Cat. No. 12800-082, Invitrogen, Massachusetts, USA) supplemented with 10% heat-inactivated fetal bovine serum (FBS, Cat. No. 26140, Gibco BRL Co, Grand Island, NY, USA), 100× penicillin G and streptomycin (Cat. No.11074440001, Sigma-Aldrich, Saint Louis, MO, USA) and 2 mM L-glutamine (Cat. No. 25030, Gibco BRL Co, Grand Island, NY, USA). Cells were seeded at 10 × 10^5 cells per well in 96-well plates and incubated for 24 h at 37 °C in a humidified atmosphere containing 5% CO2.
as §1

The subject of data set [5] is TNF-α-induced NF-κB activity. As to the kind of experiment: Inhibition of TNF-α-activated NF-κB, luciferase reporter assay in HEK293 cells. Format: cell-based, human. To be noted: Homo sapiens, HEK293; for inhibition at 50 µM: % inhibition at a concentration of 50 μM, TNF-α 2 ng/mL, 6 h, read-out: NF-κB assay % inhib.; for IC50: TNF-α-induced NF-κB luciferase, read-out: NF-κB assay IC50. From the text: To study the inhibition of tumor necrosis factor-alpha (TNF-α)-induced activation of nuclear factor-kappa B (NF-κB), human embryonic kidney 293 cells (HEK293) stably transfected with an NF-κB-responsive luciferase reporter construct (Cat. No. RC0014, Panomics, Fremont, CA, USA) were utilized, following previously described protocols (Kondratyuk et al. [2012]). This cell line incorporates a chromosomally integrated luciferase reporter, which produces luciferase enzyme upon NF-κB activation. The enzyme reacts with its substrate to produce a luminescent signal, detectable via luminometry. Cells were seeded at a density of 2 × 10^4 cells/mL in 96-well plates and cultured in Dulbecco’s Modified Eagle Medium (DMEM, Cat. No. D6429, Sigma-Aldrich, Saint Louis, MO, USA) supplemented with 10% fetal bovine serum (FBS, Cat. No. A5670701, Gibco™, Thermo Fisher Scientific, Waltham, MA, USA). The medium also contained 100 µg/mL streptomycin sulfate and 100 IU/mL penicillin G (Cat. No.15140 Gibco BRL, Grand Island, NY, USA). The cells were then treated with varying concentrations of the test sample and stimulated with recombinant human TNF-α (2 ng/mL, Cat. No. HZ-1014, Proteintech Group, Inc. Rosemont, IL, USA).
Following a 6-hour incubation, the cells were rinsed with phosphate buffer saline (PBS), lysed with 40 μL of 1X Reporter Lysis Buffer (Cat. No. E2661, Promega, Madison, WI, USA), and subjected to a freeze-thaw cycle (−80 °C/37 °C). Luminescence, generated by the luciferase reaction, was quantified using the Luc assay system (Cat. No. N1610, Promega, Madison, WI, USA) and a LUMIstar Galaxy luminometer (BMG, Offenburg, Germany).
A general note: In a reporter assay the amount or activity of a reporter protein is the signal.

In data set [6] the test system is human embryonic kidney 293 cells (HEK293). As to the kind of experiment: Cell survival in the NF-κB assay. The class given is cell-based. To be noted: human, 6 h, 50 µM.

Regarding `CC1=C(C)C(=O)OC([C@](C)(O)[C@]2(O)CC[C@@]3(O)C4C[C@H]5O[C@]56[C@@H](O)C=CC(=O)[C@]6(C)C4CC[C@]23C)C1` (stereo partly drawn) [Compound 3, 4β-hydroxywithanolide E], in data set [1], the “Nitrite assay % surv.” value is reported as 50.1 ± 2.3%. In addition, the IC50 (usually the point on the concentration scale where inhibition reaches its midpoint) at 20 h in data set [2] was determined as 14000 nM. Further, the IC50 was 900 nM in data set [3], 320 ± 20 nM in data set [4] and 40 ± 30 nM in data set [5]. Moreover, the inhibition at 50 µM amounted to 99.2 ± 0.4% in data set [4] and 99.5 ± 0.1% in data set [5]. In addition, the “NF-κB assay % surv.” value in data set [6] was 88.6 ± 10.1%.

With `CC(=O)O[C@H]1C=CC(=O)[C@]2(C)C3CC[C@]4(C)[C@](O)([C@@](C)(O)C5CC(C)=C(C)C(=O)O5)CC[C@@]4(O)C3C[C@H]3O[C@]132` (stereo partly shown) [Compound 3a], the “Nitrite assay % surv.” value in data set [1] came to 38.9 ± 2.3%. For the same compound, the IC50 at 20 h in data set [2] was 2100 nM. Moreover, in data set [4], the inhibition at 50 µM turned out to be 99.2 ± 0.4% and the IC50 was 240 ± 10 nM. Besides, in data set [4] (compared with positive control L-NMMA / within the series), the “NO inhibitory activity” value is reported as “most active”. In addition, in data set [5], the inhibition at 50 µM came to 99.9 ± 0.9% and the IC50 was found to be 470 ± 610 nM. Besides, the “NF-κB assay % surv.” value in data set [6] was 2.2 ± 2.6%.
